Results reported in US12371428B2 (Exelixis, Inc., priority 2019, dated 2025).

How the values were obtained:
Type in all cases: cell-based
[1] = target: AXL (phospho-AXL, Gas6-stimulated A-172 glioblastoma cells) (Homo sapiens (Human), UniProt P30530); test: AXL autophosphorylation ELISA in A-172 cells (Example E); details: cellular activity; AXL autophosphorylation ELISA in A-172 cells; read-out: Axl IC50
Method in brief: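 Phospho-AXL was measured by ELISA in lysates of Gas6-stimulated A-172 cells, starved 24 h in serum-free medium and exposed 1 h to an 8-point compound dilution at 0.3% DMSO.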

[2] = target: Met (phospho-Met, HGF-stimulated PC-3 prostate cancer cells) (Homo sapiens (Human), UniProt P08581); test: Met autophosphorylation ELISA in PC-3 cells (Example F); details: cellular activity; Met autophosphorylation ELISA in PC-3 cells; read-out: c-Met IC50
Met (phospho-Met, HGF-stimulated PC-3 prostate cancer cells), sequence (P08581 25-1390): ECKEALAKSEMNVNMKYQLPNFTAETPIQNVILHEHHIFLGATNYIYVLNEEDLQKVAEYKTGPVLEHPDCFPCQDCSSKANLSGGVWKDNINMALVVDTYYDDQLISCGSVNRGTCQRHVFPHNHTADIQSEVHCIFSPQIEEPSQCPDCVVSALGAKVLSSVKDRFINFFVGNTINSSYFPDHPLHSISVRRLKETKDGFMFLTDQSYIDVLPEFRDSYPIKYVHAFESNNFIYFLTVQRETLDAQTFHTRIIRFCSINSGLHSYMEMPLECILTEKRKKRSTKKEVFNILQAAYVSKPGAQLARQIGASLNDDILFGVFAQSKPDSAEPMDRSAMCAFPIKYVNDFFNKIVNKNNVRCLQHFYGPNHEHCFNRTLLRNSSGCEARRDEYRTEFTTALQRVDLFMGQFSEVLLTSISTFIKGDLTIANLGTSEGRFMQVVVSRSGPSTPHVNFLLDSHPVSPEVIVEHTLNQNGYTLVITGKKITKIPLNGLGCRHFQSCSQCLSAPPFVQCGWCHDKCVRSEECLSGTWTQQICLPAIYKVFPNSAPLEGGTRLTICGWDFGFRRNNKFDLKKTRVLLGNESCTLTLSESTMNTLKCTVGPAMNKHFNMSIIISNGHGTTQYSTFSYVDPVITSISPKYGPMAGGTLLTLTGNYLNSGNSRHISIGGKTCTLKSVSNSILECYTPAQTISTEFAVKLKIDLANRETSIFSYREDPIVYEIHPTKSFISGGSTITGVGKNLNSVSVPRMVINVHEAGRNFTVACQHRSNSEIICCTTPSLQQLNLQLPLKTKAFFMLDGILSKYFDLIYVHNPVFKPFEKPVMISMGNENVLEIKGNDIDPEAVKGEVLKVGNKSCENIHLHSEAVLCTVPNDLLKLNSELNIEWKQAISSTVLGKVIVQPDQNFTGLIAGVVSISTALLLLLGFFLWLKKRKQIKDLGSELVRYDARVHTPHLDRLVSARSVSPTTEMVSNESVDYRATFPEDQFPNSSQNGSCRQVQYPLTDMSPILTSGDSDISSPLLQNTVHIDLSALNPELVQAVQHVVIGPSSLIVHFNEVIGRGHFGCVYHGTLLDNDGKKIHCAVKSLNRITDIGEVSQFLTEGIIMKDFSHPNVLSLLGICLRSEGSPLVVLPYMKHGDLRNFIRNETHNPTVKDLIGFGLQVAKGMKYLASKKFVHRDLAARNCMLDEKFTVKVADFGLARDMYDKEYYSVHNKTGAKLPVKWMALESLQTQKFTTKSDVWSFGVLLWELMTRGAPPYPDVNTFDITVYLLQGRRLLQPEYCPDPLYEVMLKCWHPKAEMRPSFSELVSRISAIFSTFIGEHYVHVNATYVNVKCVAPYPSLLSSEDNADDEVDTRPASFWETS
Method in brief: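 Serum-starved (3 h) PC-3 cells were treated 1 h with compounds (8-point curve, 0.3% DMSO), then stimulated with 100 ng/mL human HGF for 10 min. Lysate phospho-Met (panTyr) was measured by sandwich ELISA, normalised to DMSO and reference-inhibitor controls. IC50 came from 4-parameter logistic fit.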

[3] = target: KDR (phospho-KDR, VEGF165-stimulated HUVEC cells) (Homo sapiens (Human), UniProt P35968); test: KDR autophosphorylation ELISA in HUVEC cells (Example G); details: cellular activity; KDR autophosphorylation ELISA in HUVEC cells
KDR (phospho-KDR, VEGF165-stimulated HUVEC cells), sequence (P35968 20-1356): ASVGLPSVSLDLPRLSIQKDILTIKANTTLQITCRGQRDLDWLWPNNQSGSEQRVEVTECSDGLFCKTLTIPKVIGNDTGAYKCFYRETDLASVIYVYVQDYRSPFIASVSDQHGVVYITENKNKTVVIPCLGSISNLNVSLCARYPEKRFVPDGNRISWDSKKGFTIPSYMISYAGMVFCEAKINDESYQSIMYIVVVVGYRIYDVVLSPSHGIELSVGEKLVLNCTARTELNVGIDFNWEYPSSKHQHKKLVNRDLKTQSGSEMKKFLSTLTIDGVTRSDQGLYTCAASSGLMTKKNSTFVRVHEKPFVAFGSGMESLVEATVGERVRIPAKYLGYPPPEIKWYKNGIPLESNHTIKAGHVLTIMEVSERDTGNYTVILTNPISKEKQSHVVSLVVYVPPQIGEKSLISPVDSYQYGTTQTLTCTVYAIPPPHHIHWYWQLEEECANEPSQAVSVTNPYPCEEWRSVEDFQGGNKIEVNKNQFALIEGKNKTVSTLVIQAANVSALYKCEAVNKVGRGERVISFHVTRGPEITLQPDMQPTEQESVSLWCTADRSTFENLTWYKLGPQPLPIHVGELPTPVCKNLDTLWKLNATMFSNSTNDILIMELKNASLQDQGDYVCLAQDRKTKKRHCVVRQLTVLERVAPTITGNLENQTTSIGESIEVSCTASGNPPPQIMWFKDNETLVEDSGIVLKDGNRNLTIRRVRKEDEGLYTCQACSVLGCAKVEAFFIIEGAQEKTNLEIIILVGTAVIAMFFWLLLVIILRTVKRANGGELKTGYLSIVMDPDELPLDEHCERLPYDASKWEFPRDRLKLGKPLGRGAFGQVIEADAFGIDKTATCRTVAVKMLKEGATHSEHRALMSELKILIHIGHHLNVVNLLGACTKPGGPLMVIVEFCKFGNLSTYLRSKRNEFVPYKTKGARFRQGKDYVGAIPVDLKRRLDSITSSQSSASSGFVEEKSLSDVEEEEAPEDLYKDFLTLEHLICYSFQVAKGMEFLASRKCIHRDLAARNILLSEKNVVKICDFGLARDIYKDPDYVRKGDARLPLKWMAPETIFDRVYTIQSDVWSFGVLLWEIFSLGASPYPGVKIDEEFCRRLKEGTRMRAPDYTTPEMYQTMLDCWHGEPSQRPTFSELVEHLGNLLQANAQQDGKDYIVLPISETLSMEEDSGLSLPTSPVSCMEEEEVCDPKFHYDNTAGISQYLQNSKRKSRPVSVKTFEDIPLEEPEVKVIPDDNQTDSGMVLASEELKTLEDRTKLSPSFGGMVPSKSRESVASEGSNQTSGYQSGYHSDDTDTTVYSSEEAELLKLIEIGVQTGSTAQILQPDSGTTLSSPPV
Method in brief: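 Read-out: phospho-KDR in cell lysates by DuoSet IC ELISA, normalised between VEGF-stimulated DMSO wells (100%) and unstimulated wells (0%). Human endothelial cells were starved overnight in serum-free medium, exposed to compound for 1 h, and then pulsed with 100 ng/mL VEGF165 for 5 min.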

[4] = target: Mer (phospho-Mer, MERTK-transfected 293A cells) (Homo sapiens (Human), UniProt Q12866); test: Mer autophosphorylation ELISA in transient transfected 293A cells (Example H); details: cellular activity; Mer autophosphorylation ELISA in transient transfected 293A cells
Mer (phospho-Mer, MERTK-transfected 293A cells), sequence (Q12866 21-999): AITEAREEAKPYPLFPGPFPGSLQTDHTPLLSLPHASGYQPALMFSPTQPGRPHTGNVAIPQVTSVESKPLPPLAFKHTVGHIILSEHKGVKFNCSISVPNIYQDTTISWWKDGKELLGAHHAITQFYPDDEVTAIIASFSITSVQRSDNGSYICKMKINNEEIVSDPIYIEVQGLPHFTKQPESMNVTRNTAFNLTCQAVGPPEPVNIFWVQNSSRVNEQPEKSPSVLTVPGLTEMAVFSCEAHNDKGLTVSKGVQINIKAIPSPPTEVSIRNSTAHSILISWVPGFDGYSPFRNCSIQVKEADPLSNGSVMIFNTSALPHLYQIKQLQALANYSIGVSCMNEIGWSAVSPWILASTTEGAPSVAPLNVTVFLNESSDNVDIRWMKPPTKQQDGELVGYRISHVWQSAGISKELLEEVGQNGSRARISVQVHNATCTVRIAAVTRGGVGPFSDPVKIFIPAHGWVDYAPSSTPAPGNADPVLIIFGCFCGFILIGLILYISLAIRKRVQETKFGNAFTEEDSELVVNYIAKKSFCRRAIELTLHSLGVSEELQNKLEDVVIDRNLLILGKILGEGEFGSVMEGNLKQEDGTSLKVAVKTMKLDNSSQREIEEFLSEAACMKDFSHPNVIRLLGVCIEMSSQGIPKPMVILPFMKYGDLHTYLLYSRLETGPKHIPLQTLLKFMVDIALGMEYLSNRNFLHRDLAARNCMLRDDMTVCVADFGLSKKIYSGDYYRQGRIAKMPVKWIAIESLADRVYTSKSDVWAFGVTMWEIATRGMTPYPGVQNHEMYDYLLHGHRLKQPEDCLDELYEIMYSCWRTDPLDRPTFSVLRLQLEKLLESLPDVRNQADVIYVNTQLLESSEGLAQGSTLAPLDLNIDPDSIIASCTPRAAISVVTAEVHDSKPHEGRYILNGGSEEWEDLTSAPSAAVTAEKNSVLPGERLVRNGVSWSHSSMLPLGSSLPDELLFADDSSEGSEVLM
Method in brief: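 IC50 from phospho-Mer ELISA of MERTK-transfected 293A cell lysates after 1 h treatment with serially diluted compound in serum-free medium.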

AXL (phospho-AXL, Gas6-stimulated A-172 glioblastoma cells), sequence (P30530 26-894): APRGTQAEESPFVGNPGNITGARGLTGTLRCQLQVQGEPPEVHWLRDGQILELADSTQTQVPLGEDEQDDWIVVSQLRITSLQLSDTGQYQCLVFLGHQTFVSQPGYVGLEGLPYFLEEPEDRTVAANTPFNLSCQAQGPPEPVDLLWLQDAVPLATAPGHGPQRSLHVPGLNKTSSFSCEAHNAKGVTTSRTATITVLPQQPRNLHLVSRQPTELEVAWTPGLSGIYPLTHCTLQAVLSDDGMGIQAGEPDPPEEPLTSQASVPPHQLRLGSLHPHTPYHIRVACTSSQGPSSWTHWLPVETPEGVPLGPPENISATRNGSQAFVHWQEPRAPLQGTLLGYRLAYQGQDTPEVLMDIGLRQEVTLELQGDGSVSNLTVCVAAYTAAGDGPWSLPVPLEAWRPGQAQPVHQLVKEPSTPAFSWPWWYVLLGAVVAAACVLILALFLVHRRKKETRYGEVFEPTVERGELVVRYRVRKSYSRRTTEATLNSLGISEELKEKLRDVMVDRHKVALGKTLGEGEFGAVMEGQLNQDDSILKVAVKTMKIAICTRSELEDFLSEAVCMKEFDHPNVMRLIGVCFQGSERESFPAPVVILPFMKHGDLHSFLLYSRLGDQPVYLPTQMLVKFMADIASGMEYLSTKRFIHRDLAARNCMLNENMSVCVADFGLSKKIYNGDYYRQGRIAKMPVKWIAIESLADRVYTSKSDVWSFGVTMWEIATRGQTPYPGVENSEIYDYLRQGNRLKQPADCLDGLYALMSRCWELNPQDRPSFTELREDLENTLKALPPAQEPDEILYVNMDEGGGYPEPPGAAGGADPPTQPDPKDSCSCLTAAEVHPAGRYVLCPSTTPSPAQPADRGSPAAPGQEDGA

Row | Structure (SMILES) | IC50 [1] | IC50 [2] | IC50 [3] | IC50 [4]
1 | C=C(C)c1cnc2c(Oc3ccc(NC(=O)c4cnc(C)n(-c5ccc(F)cc5)c4=O)cc3)ccnc2c1 [Compound 462, 1-(4-fluorophenyl)-2-methyl-6-oxo-N-[4-[(7-prop-1-en-2-yl-1,5-naphthyridin-4-yl)oxy]phenyl]pyrimidine-5-carboxamide] | < 100 nM | < 100 nM | < 100 nM | < 100 nM
2 | COCCOc1cc2nccc(Oc3ccc(NC(=O)c4c(C)nc(C)c(-c5ccc(F)cc5C)c4O)cc3F)c2nc1OC [Compound 487, N-[3-fluoro-4-[[6-methoxy-7-(2-methoxyethoxy)-1,5-naphthyridin-4-yl]oxy]phenyl]-5-(4-fluoro-2-methylphenyl)-4-hydroxy-2,6-dimethylpyridine-3-carboxamide] | < 100 nM | < 100 nM | < 100 nM | < 100 nM
3 | COc1cc2nccc(Oc3ccc(NC(=O)c4cn5c(c(-c6ccc(F)cc6)c4=O)CCCC5)cc3F)c2nc1OC [Compound 363, N-[4-[(6,7-dimethoxy-1,5-naphthyridin-4-yl)oxy]-3-fluorophenyl]-1-(4-fluorophenyl)-2-oxo-6,7,8,9-tetrahydroquinolizine-3-carboxamide] | < 100 nM | < 100 nM | < 100 nM | < 100 nM
4 | COc1cnc2c(Oc3ccc(NC(=O)c4cn(C(F)F)c(C)c(-c5ccc(F)cc5)c4=O)cc3)ccnc2c1 [Compound 669, 1-(difluoromethyl)-5-(4-fluorophenyl)-N-[4-[(7-methoxy-1,5-naphthyridin-4-yl)oxy]phenyl]-6-methyl-4-oxopyridine-3-carboxamide] | < 100 nM | < 100 nM | > 300 nM | < 100 nM
5 | COc1cnc2c(Oc3ccc(NC(=O)c4cn(C)c(C5CC5)c(-c5ccc(F)cc5)c4=O)cc3F)ccnc2c1 [Compound 685, 6-cyclopropyl-N-[3-fluoro-4-[(7-methoxy-1,5-naphthyridin-4-yl)oxy]phenyl]-5-(4-fluorophenyl)-1-methyl-4-oxopyridine-3-carboxamide] | < 100 nM | < 100 nM | > 300 nM | < 100 nM

Now from value to molecule:

Row | IC50 [1] | IC50 [2] | IC50 [3] | IC50 [4] | Structure (SMILES)
6 | < 100 nM | < 100 nM | > 300 nM | < 100 nM | C=Cc1c(C)c(C(=O)Nc2ccc(Oc3ccnc4cc(OCCOC)cnc34)c(F)c2)c(=O)n(-c2ccc(F)cc2)c1C [Compound 742, 5-ethenyl-N-[3-fluoro-4-[[7-(2-methoxyethoxy)-1,5-naphthyridin-4-yl]oxy]phenyl]-1-(4-fluorophenyl)-4,6-dimethyl-2-oxopyridine-3-carboxamide]
7 | < 100 nM | < 100 nM | > 300 nM | < 100 nM | Cc1ccc2nccc(Oc3ccc(NC(=O)c4cn(C)c(CO)c(-c5ccc(F)cc5)c4=O)cc3F)c2n1 [Compound 749, N-[3-fluoro-4-[(6-methyl-1,5-naphthyridin-4-yl)oxy]phenyl]-5-(4-fluorophenyl)-6-(hydroxymethyl)-1-methyl-4-oxopyridine-3-carboxamide]
8 | < 100 nM | < 100 nM | > 300 nM | < 100 nM | COc1cnc2c(Oc3ccc(NC(=O)c4c(C)n(C)c(C)c(-c5ccc(F)cc5C)c4=O)cc3F)ccnc2c1 [Compound 771, N-[3-fluoro-4-[(7-methoxy-1,5-naphthyridin-4-yl)oxy]phenyl]-5-(4-fluoro-2-methylphenyl)-1,2,6-trimethyl-4-oxopyridine-3-carboxamide]
9 | < 100 nM | < 100 nM | < 100 nM | < 100 nM | CNC(=O)c1cc2nccc(Oc3cc(F)c(NC(=O)c4ccc(C)n(-c5ccc(F)cc5)c4=O)cc3F)c2cc1C [Compound 726, 4-[2,5-difluoro-4-[[1-(4-fluorophenyl)-6-methyl-2-oxopyridine-3-carbonyl]amino]phenoxy]-N,6-dimethylquinoline-7-carboxamide]
